Source: ChEMBL document CHEMBL1155392, “New adjuvants to enhance anticoagulant activity of warfarin” (Bioorg Med Chem Lett, 2010)
The source made the active and inactive calls. The calls are words filed in the database; no cut-off is given here.

Columns and labels:
[1] = tested on: Rattus norvegicus; test: Anticoagulant activity in Sprague-Dawley rat assessed as change in factor 10 content in blood at 0.25 mg/kg, po after 4 days (reference value: 60.6%+/-3.0 %); assay type: functional
[2] = tested on: Rattus norvegicus; test: Anticoagulant activity in Sprague-Dawley rat assessed as change in prothrombin time at 2.5 mg/kg, po after 4 days ([…]); assay type: functional
[3] = tested on: Rattus norvegicus; test: Anticoagulant activity in Sprague-Dawley rat assessed as change in factor 7 content in blood at 2.5 mg/kg, po after 4 days (reference value: 400%+/-33.2%); assay type: functional
[4] = tested on: Rattus norvegicus; test: Anticoagulant activity in Sprague-Dawley rat assessed as change in factor 10 content in blood at 2.5 mg/kg, po after 4 days (reference value: 60.6%+/-3.0 %); assay type: functional
[5] = tested on: Rattus norvegicus; test: Anticoagulant activity in Sprague-Dawley rat assessed as change in prothrombin time at 0.025 mg/kg, po after 10 days ([…]); assay type: functional
[6] = tested on: Rattus norvegicus; test: Anticoagulant activity in Sprague-Dawley rat assessed as change in factor 7 content in blood at 0.025 mg/kg, po after 10 days (reference value: 321.3%+/-14.7 %); assay type: functional
[7] = tested on: Rattus norvegicus; test: Anticoagulant activity in Sprague-Dawley rat assessed as change in factor 10 content in blood at 0.025 mg/kg, po after 10 days (reference value: 58.1%+/-1.8 %); assay type: functional
[8] = tested on: Rattus norvegicus; test: Anticoagulant activity in Sprague-Dawley rat assessed as change in prothrombin time at 0.25 mg/kg, po after 10 days (Rvb=12.9+/-0.7 sec); assay type: functional
[9] = tested on: Rattus norvegicus; test: Anticoagulant activity in Sprague-Dawley rat assessed as change in factor 7 content in blood at 0.25 mg/kg, po after 10 days (reference value: 321.3%+/-14.7 %); assay type: functional
[10] = tested on: Rattus norvegicus; test: Anticoagulant activity in Sprague-Dawley rat assessed as change in factor 10 content in blood at 0.25 mg/kg, po after 10 days (reference value: 58.1%+/-1.8 %); assay type: functional
[11] = tested on: Rattus norvegicus; test: Anticoagulant activity in Sprague-Dawley rat assessed as change in prothrombin time at 2.5 mg/kg, po after 10 days (Rvb=12.9+/-0.7 sec); assay type: functional
[12] = tested on: Rattus norvegicus; test: Anticoagulant activity in Sprague-Dawley rat assessed as reduction factor 7 content in blood at 2.5 mg/kg, po after 10 days (reference value: 321.3%+/-14.7 %); assay type: functional; set-up: scale not given: the % may be the effect or the level left
[13] = tested on: Rattus norvegicus; test: Anticoagulant activity in Sprague-Dawley rat assessed as change in factor 10 content in blood at 2.5 mg/kg, po after 10 days (reference value: 58.1%+/-1.8 %); assay type: functional
[14] = tested on: Rattus norvegicus; test: Anticoagulant activity in orally dosed Sprague-Dawley rat; assay type: functional, organism-based
[15] = tested on: Rattus norvegicus; test: Potentiation of warfarin-induced anticoagulant activity in Sprague-Dawley rat assessed as change in prothrombin time at 2.5 mg/kg, po after 4 days (Rvb= 12.8+/-0.5 sec); assay type: functional
[16] = tested on: Rattus norvegicus; test: Potentiation of warfarin-induced anticoagulant activity in Sprague-Dawley rat assessed as change in factor 7 level at 2.5 mg/kg, po after 4 days (reference value: 400 %+/-33.2%); assay type: functional
[17] = tested on: Rattus norvegicus; test: Potentiation of warfarin-induced anticoagulant activity in Sprague-Dawley rat assessed as change in factor 10 level at 2.5 mg/kg, po after 4 days (Rvb =60.6%+/-3.0%); assay type: functional
[18] = tested on: Rattus norvegicus; test: Potentiation of warfarin-induced anticoagulant activity in Sprague-Dawley rat assessed as change in factor 10 level at 2.5 mg/kg, po after 10 days (Rvb =58.1%+/-1.8%); assay type: functional
[19] = tested on: Rattus norvegicus; test: Potentiation of warfarin-induced anticoagulant activity in Sprague-Dawley rat assessed as change in factor 7 level at 2.5 mg/kg, po after 10 days (reference value: 321.3 %+/-14.7%); assay type: functional
[20] = tested on: Rattus norvegicus; test: Potentiation of warfarin-induced anticoagulant activity in Sprague-Dawley rat assessed as change in prothrombin time at 2.5 mg/kg, po after 10 days (Rvb= 12.9+/-0.7 sec); assay type: functional
[21] = tested on: Rattus norvegicus; test: Anticoagulant activity in Sprague-Dawley rat assessed as change in prothrombin time at 0.025 mg/kg, po after 4 days (Rvb=12.8+/-0.5 sec); assay type: functional
[22] = tested on: Rattus norvegicus; test: Anticoagulant activity in Sprague-Dawley rat assessed as change in factor 7 content in blood at 0.025 mg/kg, po after 4 days (reference value: 400%+/-33.2%); assay type: functional
[23] = tested on: Rattus norvegicus; test: Anticoagulant activity in Sprague-Dawley rat assessed as change in factor 10 content in blood at 0.025 mg/kg, po after 4 days (reference value: 60.6%+/-3.0 %); assay type: functional
[24] = organism: Rattus norvegicus; test: Cytotoxicity in Sprague-Dawley rat; assay type: organism-based; details: in vivo
[25] = tested on: Rattus norvegicus; test: Anticoagulant activity in Sprague-Dawley rat assessed as change in prothrombin time at 0.25 mg/kg, po after 4 days ([…]); assay type: functional
[26] = tested on: Rattus norvegicus; test: Anticoagulant activity in Sprague-Dawley rat assessed as change in factor 7 content in blood at 0.25 mg/kg, po after 4 days (reference value: 400%+/-33.2%); assay type: functional

Compound	Activity [1]	PT [2]	Activity [3]	Activity [4]	PT [5]	Activity [6]	Activity [7]	PT [8]	Activity [9]	Activity [10]	PT [11]	Activity [12]	Activity [13]	Activity [14]	PT [15]	Activity [16]	Activity [17]	Activity [18]	PT [25]	Activity [26]	other results
CC(=O)Oc1c2c(c(OC(C)=O)c3ccccc13)[C@]1(C)C=C[C@]2(C)C1	65.3%	11.8 s	370.8%	64.3%	11.4 s	364%	68%	11.7 s	304.7%	61.2%	11.6 s	286.8%	61%	inactive	40.5 s	20.3%	4.8%	7.7%	11.6 s	351.3%	Activity [19]: 35%; PT [20]: 35.4 s; PT [21]: 11.2 s; Activity [22]: 346.8%; Activity [23]: 74.5%; Activity [24]: Not Active
CC(=O)CC(c1ccccc1)c1c(O)c2ccccc2oc1=O (stereo not drawn) [WARFARIN]	10%							24.4 s	56.2%	14.9%									37 s	29.5%	
CC(=O)Oc1c2c(c(OC(C)=O)c3ccccc13)[C@@]1(C)C[C@]2(C)[C@]2(C)O[C@@]21C	61%	12.7 s	395.5%	61%	11.6 s	350.3%	64.2%	11.6 s	295.2%	59.8%	11.6 s	285.8%	61%	inactive	12 s	264%	58.8%	3.6%	11.6 s	334.3%	Activity [19]: 18.4%; PT [20]: 108.4 s; PT [21]: 11.4 s; Activity [22]: 366.3%; Activity [23]: 73.3%; Activity [24]: Not Active
